ChEMBL document CHEMBL1201862, “PubChem BioAssay data set” (2004)
Calls of active or inactive are those of the source.

Legend:
[1] = target: T1, Mannose-6-phosphate isomerase (Homo sapiens, UniProt P34949); experiment: human PMI inhibitors, high substrate, primary screen, biochemical, fluorescence intensity, high mannose 6-phosphate (AID 1220)
T1 sequence (P34949 whole entry): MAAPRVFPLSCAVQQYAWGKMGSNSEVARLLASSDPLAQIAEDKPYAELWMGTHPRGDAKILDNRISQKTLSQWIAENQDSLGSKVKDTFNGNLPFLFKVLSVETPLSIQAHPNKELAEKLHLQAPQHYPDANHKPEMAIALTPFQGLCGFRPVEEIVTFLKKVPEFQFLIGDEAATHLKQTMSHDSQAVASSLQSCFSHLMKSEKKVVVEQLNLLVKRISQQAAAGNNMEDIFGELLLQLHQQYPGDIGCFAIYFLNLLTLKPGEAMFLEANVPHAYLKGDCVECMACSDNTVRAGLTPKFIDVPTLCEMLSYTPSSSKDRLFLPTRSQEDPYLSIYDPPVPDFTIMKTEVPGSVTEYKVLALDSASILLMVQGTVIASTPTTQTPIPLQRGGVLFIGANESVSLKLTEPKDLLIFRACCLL

[2] = THP-1 cell cytotoxicity, dose response, cytotoxicity control for Vif-APOBEC3G degradation inhibitor project, THP-1 cells (AID 1117359); format: functional; conditions: Human immunodeficiency virus 1, THP-1
cells [3] = format: functional, cell-based
Vero = Vero cell cytotoxicity, cytotoxicity control for flavivirus capping enzyme inhibitors (AID 588742); format: functional; conditions: Chlorocebus sabaeus
[4] = inhibitors of SNCA 5'UTR-driven reporter translation, confirmation, H4 neuroglioma cells, luminescence (AID 1988); format: functional, cell-based
[5] = Luminescence Cell-Based Dose Response HTS to Identify Inhibitors of 5'UTR Stem-Loop Driven Prion Protein mRNA Translation in H4 Neuroglioblastoma Cells. [Related pubchem assays: 1827 (Project Summary), 1813 (Primary HTS)]; format: functional
[6] = target: Induced myeloid leukemia cell differentiation protein Mcl-1 (Homo sapiens, UniProt Q07820); format: functional
[7] = inhibitors of firefly luciferase expression or activity, dose response, H4 neuroglioma cells, luminescence (AID 1990); format: functional, cell-based
cells [8] = format: functional, cell-based; remark: listed apart in the source
[9] = test system: Streptococcus sp. 'group A'; experiment: growth inhibition of control SK(-) GAS strain, dose response, counter-screen for streptokinase expression inhibitor project, luminescence, kanamycin, BacTiterGlo, confirmation (AID 1900); format: functional, organism-based
[10] = C. albicans growth with fluconazole, confirmation, fluorescence, retest (AID 2467); format: functional, cell-based
Genome polyprotein = Genome polyprotein (dengue virus type 2, UniProt P29990); experiment: Dengue-2 NS5 methyltransferase inhibitors, primary screen, biochemical, confirmation dose response (AID 588689); format: functional
[11] = NIH-3T3 fibroblast cytotoxicity, dose response, cytotoxicity control, cell-based, fluorescence, Alamar Blue, secondary assay (AID 2327); format: functional;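 also: NIH-3T3 mouse fibroblasts cultured with fluconazole at 8 µg/mL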
Streptococcus = experiment: Group A Streptococcus viability loss, dose response, counter-screen for streptokinase expression inhibitor project, luminescence, BacTiterGlo (AID 1915); format: functional, organism-based;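 also: potency for reduction of bacterial viability or growth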
cells [12] = format: functional, cell-based; remark: listed apart in the source
cells [13] = format: functional, cell-based; remark: listed apart in the source
[14] = inhibitors of Vif binding to APOBEC3G peptide, primary screen, biochemical, TR-FRET, GST-Vif 1-94, biotin-A3G peptide, dose response retest (AID 1117319); format: functional;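 also: TR-FRET signal of purified GST-Vif binding a biotinylated A3G peptide; inhibitors lower the FRET signal by blocking Vif and A3G binding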
Coagulation factor XII = target: T2, Coagulation factor XII (Homo sapiens, UniProt P00748); format: functional;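 also: activated factor XIIa alpha cleaving a fluorogenic AMC peptide substrate; inhibitor potency from loss of enzyme activity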
T2 sequence (P00748 whole entry): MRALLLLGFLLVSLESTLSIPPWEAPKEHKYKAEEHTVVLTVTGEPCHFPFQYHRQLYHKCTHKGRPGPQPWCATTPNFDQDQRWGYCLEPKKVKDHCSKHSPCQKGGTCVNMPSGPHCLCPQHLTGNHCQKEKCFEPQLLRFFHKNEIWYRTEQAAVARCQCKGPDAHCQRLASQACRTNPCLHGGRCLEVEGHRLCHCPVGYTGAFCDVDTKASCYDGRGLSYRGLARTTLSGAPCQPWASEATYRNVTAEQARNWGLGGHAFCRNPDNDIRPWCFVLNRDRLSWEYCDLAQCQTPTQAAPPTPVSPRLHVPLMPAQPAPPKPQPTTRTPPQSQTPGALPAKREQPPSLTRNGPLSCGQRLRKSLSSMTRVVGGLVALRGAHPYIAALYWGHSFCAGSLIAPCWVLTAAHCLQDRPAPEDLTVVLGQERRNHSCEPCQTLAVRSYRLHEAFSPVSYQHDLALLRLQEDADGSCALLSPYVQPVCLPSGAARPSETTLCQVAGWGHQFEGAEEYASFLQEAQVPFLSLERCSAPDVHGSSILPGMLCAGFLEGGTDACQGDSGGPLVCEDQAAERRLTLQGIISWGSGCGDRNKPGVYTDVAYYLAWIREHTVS

[15] = M. tuberculosis H37Rv growth inhibitors, H37Rv strain (AID 1626); format: functional
[16] = HEK293T cytotoxicity, dose response, cytotoxicity control for miR-122 modulator project, cell-based, inhibitor set, cherry-pick, set 2 (AID 720697); format: functional
[17] = inhibitors of PGC1a acetylation in cells, dose response, cell-based, cherry-picked samples (AID 720514); format: functional;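 also: potency may reflect raised or lowered acetylation signal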
[18] = target: Disintegrin and metalloproteinase domain-containing protein 17 (Homo sapiens, UniProt P78536); experiment: exosite inhibitors of ADAM17, dose response, biochemical (AID 743260)
[19] = ADAM10 protease inhibitors, dose response, selectivity assay for ADAM17 exosite inhibitor project, biochemical, FRET peptide substrate, recombinant human ADAM10 (AID 743259);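 also: ADAM10 enzyme cleaving a FRET peptide substrate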
Streptokinase A = target: T3, Streptokinase A (Streptococcus pyogenes serotype M1, UniProt P10520); experiment: S. pyogenes streptokinase expression inhibitors, potency, dose response, plasminogen activation absorbance, OD405 (AID 1914); format: functional, Streptococcus pyogenes M1 GAS;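 also: secreted streptokinase activity via plasminogen activation per viability signal from cell pellet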
T3 sequence (P10520 whole entry): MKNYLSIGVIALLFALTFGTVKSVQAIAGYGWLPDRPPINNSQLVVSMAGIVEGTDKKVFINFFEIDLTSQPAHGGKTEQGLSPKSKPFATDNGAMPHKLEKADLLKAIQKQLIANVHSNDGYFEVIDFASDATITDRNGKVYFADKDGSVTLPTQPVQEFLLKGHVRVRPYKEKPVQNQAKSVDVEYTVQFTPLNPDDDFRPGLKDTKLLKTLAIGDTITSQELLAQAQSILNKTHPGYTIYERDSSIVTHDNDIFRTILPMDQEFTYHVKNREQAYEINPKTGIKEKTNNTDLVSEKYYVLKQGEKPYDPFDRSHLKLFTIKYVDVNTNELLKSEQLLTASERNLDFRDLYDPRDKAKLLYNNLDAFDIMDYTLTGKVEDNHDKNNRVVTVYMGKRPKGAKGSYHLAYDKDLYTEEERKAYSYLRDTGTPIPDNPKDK

[20] = Luminescence Cell-Based Dose Retest to Confirm Inhibitors of Cancer Stem Cells. [Related pubchem assays (depositor defined):AID2717, AID2721]; format: functional; conditions: Homo sapiens

Genome polyprotein, sequence (P29990 2492-3391 limits assumed): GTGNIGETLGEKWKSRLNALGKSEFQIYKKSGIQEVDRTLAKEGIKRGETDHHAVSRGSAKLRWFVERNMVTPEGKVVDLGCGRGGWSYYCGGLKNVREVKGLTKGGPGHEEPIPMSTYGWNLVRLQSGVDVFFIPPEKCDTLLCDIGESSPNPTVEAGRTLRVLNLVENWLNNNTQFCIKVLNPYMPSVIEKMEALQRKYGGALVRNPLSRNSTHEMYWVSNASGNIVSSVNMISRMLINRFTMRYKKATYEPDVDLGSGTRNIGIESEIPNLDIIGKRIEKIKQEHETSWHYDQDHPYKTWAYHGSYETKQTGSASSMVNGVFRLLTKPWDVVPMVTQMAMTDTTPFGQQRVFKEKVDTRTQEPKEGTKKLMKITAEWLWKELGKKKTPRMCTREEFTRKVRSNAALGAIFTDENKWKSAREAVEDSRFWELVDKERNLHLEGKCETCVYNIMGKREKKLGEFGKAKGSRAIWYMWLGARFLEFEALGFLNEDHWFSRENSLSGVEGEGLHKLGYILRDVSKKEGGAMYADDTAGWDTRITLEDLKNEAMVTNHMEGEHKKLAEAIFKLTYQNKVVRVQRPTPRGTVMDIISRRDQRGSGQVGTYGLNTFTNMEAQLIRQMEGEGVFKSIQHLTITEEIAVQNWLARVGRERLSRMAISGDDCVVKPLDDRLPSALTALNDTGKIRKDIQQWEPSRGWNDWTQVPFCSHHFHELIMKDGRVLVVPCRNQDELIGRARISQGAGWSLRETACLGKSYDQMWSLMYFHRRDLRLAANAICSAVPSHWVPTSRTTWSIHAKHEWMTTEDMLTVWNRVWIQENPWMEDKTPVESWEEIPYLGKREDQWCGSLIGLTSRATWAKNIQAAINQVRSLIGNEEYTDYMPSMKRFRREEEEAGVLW
Disintegrin and metalloproteinase domain-containing protein 17, sequence (P78536 whole entry, the tested form may be a part): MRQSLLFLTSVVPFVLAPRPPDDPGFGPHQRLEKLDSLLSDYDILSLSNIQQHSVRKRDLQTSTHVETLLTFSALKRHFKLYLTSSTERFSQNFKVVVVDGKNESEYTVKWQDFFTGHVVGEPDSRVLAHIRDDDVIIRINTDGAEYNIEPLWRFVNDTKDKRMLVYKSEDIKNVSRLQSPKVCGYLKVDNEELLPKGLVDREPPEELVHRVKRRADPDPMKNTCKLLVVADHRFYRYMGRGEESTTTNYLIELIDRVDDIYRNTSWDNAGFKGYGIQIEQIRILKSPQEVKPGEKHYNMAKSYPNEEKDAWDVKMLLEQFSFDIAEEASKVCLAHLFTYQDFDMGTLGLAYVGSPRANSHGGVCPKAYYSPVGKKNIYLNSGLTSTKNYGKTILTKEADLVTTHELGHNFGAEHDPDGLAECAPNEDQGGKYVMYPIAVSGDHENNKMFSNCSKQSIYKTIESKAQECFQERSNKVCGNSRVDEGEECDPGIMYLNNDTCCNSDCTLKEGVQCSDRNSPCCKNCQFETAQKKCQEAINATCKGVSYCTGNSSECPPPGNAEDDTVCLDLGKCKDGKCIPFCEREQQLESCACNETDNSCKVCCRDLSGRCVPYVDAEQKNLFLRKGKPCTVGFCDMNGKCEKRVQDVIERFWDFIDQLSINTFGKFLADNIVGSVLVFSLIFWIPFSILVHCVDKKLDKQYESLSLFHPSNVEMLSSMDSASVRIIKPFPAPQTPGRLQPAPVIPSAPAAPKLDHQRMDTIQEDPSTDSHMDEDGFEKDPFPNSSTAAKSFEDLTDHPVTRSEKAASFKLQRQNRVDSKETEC
Induced myeloid leukemia cell differentiation protein Mcl-1, sequence (Q07820 whole entry): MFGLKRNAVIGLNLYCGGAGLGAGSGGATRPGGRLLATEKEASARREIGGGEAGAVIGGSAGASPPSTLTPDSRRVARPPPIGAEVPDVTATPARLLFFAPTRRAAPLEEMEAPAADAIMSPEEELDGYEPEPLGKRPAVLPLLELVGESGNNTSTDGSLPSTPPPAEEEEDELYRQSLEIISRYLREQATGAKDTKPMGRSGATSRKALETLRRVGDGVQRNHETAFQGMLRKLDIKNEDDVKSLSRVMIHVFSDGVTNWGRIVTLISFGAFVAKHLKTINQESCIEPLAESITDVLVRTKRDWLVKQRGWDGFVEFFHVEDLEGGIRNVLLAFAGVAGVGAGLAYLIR

## Cc1cc(SCC(=O)N/N=C/c2ccc(O)c(O)c2O)c(C)cc1Br
[1]
  IC50: > 50 µM (not active)
[2]
  CC50: 2.57 µM (active)
Cells [3]
  EC50: 11.6 µM (active)
Vero
  CC50: > 40 µM (active)
[4]
  EC50: 26.7 µM (active)
[5]
  EC50: 13.9 µM (active)
[6]
  IC50: 5.65 µM (active)
[7]
  EC50: 11 µM (active)
Cells [8]
  EC50: > 350 µM (not active)
[9]
  EC50: 3.27 µM (active)
[10]
  EC50: 1.45 µM (active)
Genome polyprotein
  IC50: 17.4 µM (active)
[11]
  EC50: > 150 µM (inconclusive)
Streptococcus
  EC50: 6.34 µM (active)

## O=C(C[C@@H]1C=C[C@H](NC(=O)Cc2ccccn2)[C@@H](CO)O1)NCCc1ccccc1
Cells [12]
  EC50: > 29.9 µM (inactive)
Cells [13]
  IC50: > 29.9 µM (inactive)

## Cc1cc(-n2ccnc2)n2c(nc3ccccc32)c1C#N
[14]
  IC50: > 100 µM (active)
Coagulation factor XII
  IC50: > 50 µM (inactive)

## COc1ccc(OCc2nn3c(-c4cccc(OC)c4)nnc3s2)cc1
[15]
  IC50: > 100 µM (active)

## CO[C@H]1CN(C)C(=O)c2cc(NC(=O)c3ccccc3F)ccc2OC[C@@H](C)N(C)C[C@@H]1C
[16]
  AC50: 10.6 µM (active)

## Cn1nnnc1SCC(=O)NCc1cccc(C(=O)O)c1
[17]
  AC50: 10.5 µM (active)

## O=C(/C=C/Nc1ccc(Oc2ccccc2Cl)cc1)c1ccco1
[15]
  IC50: > 100 µM (active)

## Cn1ccnc1Sc1ccc(/C=N/NC(=O)c2ccccc2O)cc1[N+](=O)[O-]
[14]
  IC50: > 100 µM (active)

## CN(C)S(=O)(=O)c1cccc(NC(=O)COC(=O)c2cccc(S(=O)(=O)N3CCc4ccccc4C3)c2)c1
[18]
  IC50: > 69.5 µM (inactive)
[19]
  IC50: > 69.5 µM (inactive)

## O=C(Nc1ccccc1)Nc1cc(Cl)cc(Cl)c1
[17]
  AC50: 17.2 µM (active)
Streptokinase A
  EC50: 16.8 µM (active)
[20]
  AC50: 4.3 µM (active)
[9]
  EC50: 10.6 µM (active)
Streptococcus
  EC50: 48.6 µM (active)

## O=C1N(Cc2cccnc2)C[C@@H]2C[C@@H](c3ccc4nsnc4c3)N3CCC[C@@]123
[14]
  IC50: > 100 µM (active)

## Cc1ccc(NC(=O)C2CCCCC2C(=O)O)cc1Cl (configuration not stated)
[15]
  IC50: > 100 µM (active)
